Measured values: US11944626B2, “Small molecule inhibitors of ALDH and uses thereof” (The Regents of the University of Michigan, priority 2016, dated 2024)

Tests used:
Experiment in all cases: Inhibition of ALDH isoenzymes (NAD(P)H formation at 340 nm, purified recombinant enzyme);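 for ALDH2 % Control at 20 μM: run at 25 °C, started by adding substrate after 2 min preincubation, with 100-200 nM ALDH2, 200 µM NAD+, 100 µM propionaldehyde, 1% DMSO in BES buffer pH 7.5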
Type in all cases: biochemical
[1] = biological target: T1, ALDH2 (Homo sapiens, UniProt P05091); settings: compound at 20 μM; read-out: ALDH2 % Control at 20 μM;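 note: run at 25 °C, started by adding substrate after 2 min preincubation, with 100-200 nM ALDH2, 200 µM NAD+, 100 µM propionaldehyde, 1% DMSO in BES buffer pH 7.5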
T1 sequence (P05091 18-517): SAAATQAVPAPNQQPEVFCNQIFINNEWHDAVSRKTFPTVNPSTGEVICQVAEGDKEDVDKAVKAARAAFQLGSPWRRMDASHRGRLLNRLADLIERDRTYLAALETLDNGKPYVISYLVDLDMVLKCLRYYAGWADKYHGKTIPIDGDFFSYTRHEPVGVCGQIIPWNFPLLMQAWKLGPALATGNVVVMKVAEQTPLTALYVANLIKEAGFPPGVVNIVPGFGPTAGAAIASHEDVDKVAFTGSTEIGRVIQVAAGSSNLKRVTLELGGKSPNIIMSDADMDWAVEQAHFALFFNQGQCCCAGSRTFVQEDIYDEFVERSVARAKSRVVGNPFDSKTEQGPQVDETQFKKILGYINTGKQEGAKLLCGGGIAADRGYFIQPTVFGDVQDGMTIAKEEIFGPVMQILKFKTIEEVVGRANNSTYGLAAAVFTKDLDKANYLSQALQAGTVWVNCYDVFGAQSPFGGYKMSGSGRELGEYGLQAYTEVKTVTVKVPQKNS

[2] = biological target: T2, ALDH1A2 (Homo sapiens, UniProt O94788); settings: for remaining activity at 20 µM: compound at 20 μM, read-out: ALDH1A2 % Control at 20 μM; for IC50: 100-200 nM enzyme, 200 μM NAD+, 100 μM propionaldehyde, pH 7.5, 25° C.; for ALDH1A2: compound is a substrate: result in words
T2 sequence (O94788 1-518): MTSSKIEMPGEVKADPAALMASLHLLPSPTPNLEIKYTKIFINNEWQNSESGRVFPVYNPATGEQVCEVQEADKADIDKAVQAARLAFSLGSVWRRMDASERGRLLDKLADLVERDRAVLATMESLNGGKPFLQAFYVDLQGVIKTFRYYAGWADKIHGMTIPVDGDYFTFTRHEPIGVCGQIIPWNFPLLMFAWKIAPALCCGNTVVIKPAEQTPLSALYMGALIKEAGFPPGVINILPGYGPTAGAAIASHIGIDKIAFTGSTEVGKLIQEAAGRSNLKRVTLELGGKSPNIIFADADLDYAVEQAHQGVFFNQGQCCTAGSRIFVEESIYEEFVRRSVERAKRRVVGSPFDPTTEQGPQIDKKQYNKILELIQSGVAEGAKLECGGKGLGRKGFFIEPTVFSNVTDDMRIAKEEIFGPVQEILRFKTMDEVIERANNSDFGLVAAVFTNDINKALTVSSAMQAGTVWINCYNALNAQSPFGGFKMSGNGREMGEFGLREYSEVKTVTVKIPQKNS

[3] = biological target: T3, ALDH1A1 (Homo sapiens, UniProt P00352); settings: for remaining activity at 20 µM: compound at 20 μM, read-out: ALDH1A1 % Control at 20 μM; for IC50: 100-200 nM enzyme, 200 μM NAD+, 100 μM propionaldehyde, pH 7.5, 25° C.; for ALDH1A1: compound is a substrate: result in words in place of IC50
T3 sequence (P00352 1-501): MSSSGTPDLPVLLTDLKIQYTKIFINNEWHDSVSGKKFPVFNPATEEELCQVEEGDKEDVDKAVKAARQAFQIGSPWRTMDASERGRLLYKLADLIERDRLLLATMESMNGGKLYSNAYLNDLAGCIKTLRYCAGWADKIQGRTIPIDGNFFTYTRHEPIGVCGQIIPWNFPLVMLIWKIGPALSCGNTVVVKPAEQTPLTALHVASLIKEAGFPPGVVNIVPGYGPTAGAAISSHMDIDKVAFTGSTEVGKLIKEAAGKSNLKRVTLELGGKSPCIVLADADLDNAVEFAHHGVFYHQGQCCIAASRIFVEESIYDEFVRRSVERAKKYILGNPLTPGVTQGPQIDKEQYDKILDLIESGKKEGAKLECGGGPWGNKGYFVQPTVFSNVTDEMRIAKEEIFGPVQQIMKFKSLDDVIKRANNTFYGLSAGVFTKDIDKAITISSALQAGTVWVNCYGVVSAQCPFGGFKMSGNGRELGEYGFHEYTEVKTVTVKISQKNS

[4] = biological target: T4, ALDH1A3 (Homo sapiens, UniProt P47895); settings: for remaining activity at 20 µM: compound at 20 μM, read-out: ALDH1A3 % Control at 20 μM; for IC50: 100-200 nM enzyme, 200 μM NAD+, 100 μM propionaldehyde, pH 7.5, 25° C.
T4 sequence (P47895 1-512): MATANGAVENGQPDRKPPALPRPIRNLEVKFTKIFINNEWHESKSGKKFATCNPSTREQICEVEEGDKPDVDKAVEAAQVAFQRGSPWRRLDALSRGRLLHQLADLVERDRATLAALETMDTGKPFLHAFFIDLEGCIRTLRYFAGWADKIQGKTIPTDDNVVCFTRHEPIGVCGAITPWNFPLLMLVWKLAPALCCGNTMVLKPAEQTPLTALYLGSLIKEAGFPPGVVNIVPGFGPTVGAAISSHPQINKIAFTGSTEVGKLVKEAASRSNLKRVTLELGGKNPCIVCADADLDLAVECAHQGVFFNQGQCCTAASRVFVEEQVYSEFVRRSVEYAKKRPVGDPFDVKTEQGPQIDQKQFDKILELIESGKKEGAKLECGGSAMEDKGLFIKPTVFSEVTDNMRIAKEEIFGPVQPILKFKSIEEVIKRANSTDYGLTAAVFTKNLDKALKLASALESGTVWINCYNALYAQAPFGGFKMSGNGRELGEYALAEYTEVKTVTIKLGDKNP

SMILES | remaining activity at 20 µM [1] [%] | remaining activity at 20 µM [2] [%] | remaining activity at 20 µM [3] [%] | remaining activity at 20 µM [4] [%] | IC50 [3] [nM] | IC50 [2] [nM] | IC50 [4] [nM] | ALDH1A2: compound is a substrate [2] | ALDH1A1: compound is a substrate [3]
Cn1ncc2c(=O)n(-c3ccccc3)c(CNCc3cccc(F)c3)nc21 [Example 26, 6-(((3-fluorobenzyl)amino)methyl)-1-methyl-5-phenyl-1H-pyrazolo[3,4-d]pyrimidin-4(5H)-one] | 98 | 77 | 28 | 74 | – | – | – | – | –
Cc1ccccc1-n1c(SCc2cccc(F)c2)nc2n[nH]c(C)c2c1=O [Example 39, 6-((3-fluorobenzyl)thio)-3-methyl-5-(o-tolyl)-2H-pyrazolo[3,4-d]pyrimidin-4(5H)-one] | 95 | 93 | – | 79 | 1200 | – | – | – | –
Cn1ncc2c(=O)n(C3CCCCC3)c(SCc3cccc(F)c3)nc21 [Example 44, 5-cyclohexyl-6-((3-fluorobenzyl)thio)-1-methyl-1H-pyrazolo[3,4-d]pyrimidin-4(5H)-one] | 177 | 36 | 37 | 43 | – | – | – | – | –
Cn1ncc2c(=O)n(C3CCCC3)c(SCc3cccc(F)c3)nc21 [Example 45, 5-cyclopentyl-6-((3-fluorobenzyl)thio)-1-methyl-1H-pyrazolo[3,4-d]pyrimidin-4(5H)-one] | 117 | 37 | 46 | 95 | – | – | – | – | –
Cn1ncc2c(=O)n(C3CCC3)c(SCc3cccc(F)c3)nc21 [Example 46, 5-cyclobutyl-6-((3-fluorobenzyl)thio)-1-methyl-1H-pyrazolo[3,4-d]pyrimidin-4(5H)-one] | 96 | 14 | 28 | 73 | – | – | – | – | –
Cn1ncc2c(=O)n(-c3ccccc3)c(COCc3cccc(F)c3)nc21 [Example 50, 6-(((3-fluorobenzyl)oxy)methyl)-1-methyl-5-phenyl-1H-pyrazolo[3,4-d]pyrimidin-4(5H)-one] | 101 | 52 | 15 | 37 | – | – | – | – | –
Cn1ncc2c(=O)n(-c3ccccc3)c(SCC(=O)c3ccccc3)nc21 [Example 52, 1-methyl-6-((2-oxo-2-phenylethyl)thio)-5-phenyl-1H-pyrazolo[3,4-d]pyrimidin-4(5H)-one] | 91 | – | – | – | 547 | 130 | 95 | – | –
Cn1ncc2c(=O)n(-c3ccccc3)c(SCc3cccc(C#N)c3)nc21 [Example 53, 3-(((1-methyl-4-oxo-5-phenyl-4,5-dihydro-1H-pyrazolo[3,4-d]pyrimidin-6-yl)thio)methyl)benzonitrile] | 95 | 30 | 24 | 32 | – | – | – | – | –
COc1cccc(CSc2nc3c(cnn3C)c(=O)n2-c2ccccc2)c1 [Example 54, 6-((3-methoxybenzyl)thio)-1-methyl-5-phenyl-1H-pyrazolo[3,4-d]pyrimidin-4(5H)-one] | 88 | – | – | – | 281 | 265 | 207 | – | –
Cn1ncc2c(=O)n(-c3ccccc3)c(SCc3ccccc3)nc21 [Example 55, 6-(benzylthio)-1-methyl-5-phenyl-1H-pyrazolo[3,4-d]pyrimidin-4(5H)-one] | 91 | – | – | – | 387 | 139 | 203 | – | –
Cn1ncc2c(=O)n(-c3ccccc3)c(SCc3cccc(C=O)c3)nc21 [Example 58, 3-(((1-methyl-4-oxo-5-phenyl-4,5-dihydro-1H-pyrazolo[3,4-d]pyrimidin-6-yl)thio)methyl)benzaldehyde] | 102 | – | – | – | – | 3400 | 764 | (slow | substrate
Cn1ncc2c(=O)n(-c3ccccc3)c(SCc3ccc(C=O)cc3)nc21 [Example 59, 4-(((1-methyl-4-oxo-5-phenyl-4,5-dihydro-1H-pyrazolo[3,4-d]pyrimidin-6-yl)thio)methyl)benzaldehyde] | 89 | – | – | – | – | – | 236 | substrate | substrate

Results, then the molecule that gave them:

remaining activity at 20 µM [1] [%] | remaining activity at 20 µM [2] [%] | remaining activity at 20 µM [3] [%] | remaining activity at 20 µM [4] [%] | IC50 [3] [nM] | IC50 [2] [nM] | IC50 [4] [nM] | ALDH1A2: compound is a substrate [2] | ALDH1A1: compound is a substrate [3] | SMILES
94 | -8 | -4 | -10 | – | – | – | – | – | CC(Sc1nc2c(cnn2C)c(=O)n1-c1ccccc1)c1cccc(F)c1 (stereo not shown) [Example 71, 6-((1-(3-fluorophenyl)ethyl)thio)-1-methyl-5-phenyl-1H-pyrazolo[3,4-d]pyrimidin-4(5H)-one]
96 | 34 | 26 | 24 | – | – | – | – | – | Cn1ncc2c(=O)n(-c3ccccc3)c(SC3CCCCC3)nc21 [Example 72, 6-(cyclohexylthio)-1-methyl-5-phenyl-1H-pyrazolo[3,4-d]pyrimidin-4(5H)-one]
95 | 0 | 3 | 1 | – | – | – | – | – | CC(Sc1nc2c(cnn2C2COC2)c(=O)n1-c1ccccc1)c1ccccc1 (stereo not shown) [Example 73, 1-(oxetan-3-yl)-5-phenyl-6-((1-phenylethyl)thio)-1H-pyrazolo[3,4-d]pyrimidin-4(5H)-one]
96 | 0 | 3 | 0 | – | – | – | – | – | CC(Sc1nc2nn(C3COC3)cc2c(=O)n1-c1ccccc1)c1ccccc1 (stereo not shown) [Example 74, 2-(oxetan-3-yl)-5-phenyl-6-((1-phenylethyl)thio)-2H-pyrazolo[3,4-d]pyrimidin-4(5H)-one]
95 | 46 | 23 | 64 | – | – | – | – | – | Cn1ncc2c(=O)n(-c3ccccc3)c(SC3CCCC3=O)nc21 (stereo not shown) [Example 75, 1-methyl-6-((2-oxocyclopentyl)thio)-5-phenyl-1H-pyrazolo[3,4-d]pyrimidin-4(5H)-one]
94 | 25 | 16 | 14 | – | – | – | – | – | Cn1ncc2c(=O)n(-c3ccccc3)c(SC3CCCCC3=O)nc21 (stereo not shown) [Example 76, 1-methyl-6-((2-oxocyclohexyl)thio)-5-phenyl-1H-pyrazolo[3,4-d]pyrimidin-4(5H)-one]
